From the NIST ThermoML archive (doi:10.1007/s10765-005-5570-x)

Assay: xn = mol fraction of the nth substance listed
Details: Liquid

ClCBr [bromochloromethane] + CCOC(C)=O
Details	mass density [kg/m3]
288.15 K, 101.33 kPa, x1 = 0.0961	976.08
288.15 K, 101.33 kPa, x1 = 0.2333	1083.23
288.15 K, 101.33 kPa, x1 = 0.3083	1145.77
288.15 K, 101.33 kPa, x1 = 0.4015	1228.4
288.15 K, 101.33 kPa, x1 = 0.5004	1322.97
288.15 K, 101.33 kPa, x1 = 0.604	1430.45
288.15 K, 101.33 kPa, x1 = 0.7004	1538.94
288.15 K, 101.33 kPa, x1 = 0.7987	1659.96
288.15 K, 101.33 kPa, x1 = 0.9032	1800.66
288.15 K, 101.33 kPa, x1 = 1	1945.94
298.15 K, 101.33 kPa, x1 = 0.0961	963.62
298.15 K, 101.33 kPa, x1 = 0.2333	1069.74
298.15 K, 101.33 kPa, x1 = 0.3083	1131.77
298.15 K, 101.33 kPa, x1 = 0.4015	1213.84
298.15 K, 101.33 kPa, x1 = 0.5004	1308.02
298.15 K, 101.33 kPa, x1 = 0.604	1414.77
298.15 K, 101.33 kPa, x1 = 0.7004	1522.14
298.15 K, 101.33 kPa, x1 = 0.7987	1641.51
298.15 K, 101.33 kPa, x1 = 0.9032	1780.71
298.15 K, 101.33 kPa, x1 = 1	1924.88
298.15 K, 200 kPa, x1 = 0.2995	1118.5
298.15 K, 200 kPa, x1 = 0.5013	1299.53
298.15 K, 200 kPa, x1 = 0.6994	1514.36
298.15 K, 600 kPa, x1 = 0.2995	1119.03
298.15 K, 600 kPa, x1 = 0.5013	1300.17
298.15 K, 700 kPa, x1 = 0.6994	1515.04
298.15 K, 1100 kPa, x1 = 0.2995	1119.69
298.15 K, 1200 kPa, x1 = 0.5013	1300.97
298.15 K, 1200 kPa, x1 = 0.6994	1515.77
298.15 K, 1900 kPa, x1 = 0.6994	1516.63
298.15 K, 2000 kPa, x1 = 0.2995	1120.79
298.15 K, 2100 kPa, x1 = 0.5013	1301.96
298.15 K, 3000 kPa, x1 = 0.5013	1303.21
298.15 K, 3100 kPa, x1 = 0.2995	1121.97
298.15 K, 3100 kPa, x1 = 0.6994	1518.35
298.15 K, 4000 kPa, x1 = 0.2995	1123.04
298.15 K, 4000 kPa, x1 = 0.5013	1304.49
298.15 K, 4000 kPa, x1 = 0.6994	1519.64
298.15 K, 4900 kPa, x1 = 0.5013	1305.64
298.15 K, 5100 kPa, x1 = 0.2995	1124.32
298.15 K, 5100 kPa, x1 = 0.6994	1521.08
298.15 K, 5800 kPa, x1 = 0.6994	1522.03
298.15 K, 6000 kPa, x1 = 0.5013	1306.93
298.15 K, 6100 kPa, x1 = 0.2995	1125.53
298.15 K, 6800 kPa, x1 = 0.6994	1523.33
298.15 K, 6900 kPa, x1 = 0.2995	1126.38
298.15 K, 7000 kPa, x1 = 0.5013	1308.07
298.15 K, 7800 kPa, x1 = 0.5013	1309.22
298.15 K, 7900 kPa, x1 = 0.2995	1127.44
298.15 K, 7900 kPa, x1 = 0.6994	1524.7
298.15 K, 8700 kPa, x1 = 0.6994	1525.86
298.15 K, 8800 kPa, x1 = 0.5013	1310.44
298.15 K, 9000 kPa, x1 = 0.2995	1128.74
298.15 K, 9800 kPa, x1 = 0.5013	1311.74
298.15 K, 9800 kPa, x1 = 0.6994	1527.42
298.15 K, 9900 kPa, x1 = 0.2995	1129.86
298.15 K, 11800 kPa, x1 = 0.2995	1131.84
298.15 K, 11900 kPa, x1 = 0.6994	1530.29
298.15 K, 12100 kPa, x1 = 0.5013	1314.57
298.15 K, 13800 kPa, x1 = 0.2995	1134.16
298.15 K, 13800 kPa, x1 = 0.6994	1532.98
298.15 K, 13900 kPa, x1 = 0.5013	1316.83
298.15 K, 15700 kPa, x1 = 0.2995	1136.18
298.15 K, 15900 kPa, x1 = 0.5013	1319.23
298.15 K, 15900 kPa, x1 = 0.6994	1535.7
298.15 K, 17600 kPa, x1 = 0.5013	1321.38
298.15 K, 17700 kPa, x1 = 0.2995	1138.39
298.15 K, 17700 kPa, x1 = 0.6994	1538.2
298.15 K, 19200 kPa, x1 = 0.6994	1540.32
298.15 K, 19400 kPa, x1 = 0.6994	1540.59
298.15 K, 19900 kPa, x1 = 0.5013	1324.19
298.15 K, 20000 kPa, x1 = 0.2995	1140.92
308.15 K, 101.33 kPa, x1 = 0.0961	949.99
308.15 K, 101.33 kPa, x1 = 0.2333	1054.79
308.15 K, 101.33 kPa, x1 = 0.3083	1116.41
308.15 K, 101.33 kPa, x1 = 0.4015	1197.33
308.15 K, 101.33 kPa, x1 = 0.5004	1290.38
308.15 K, 101.33 kPa, x1 = 0.604	1396.09
308.15 K, 101.33 kPa, x1 = 0.7004	1502.46
308.15 K, 101.33 kPa, x1 = 0.7987	1620.66
308.15 K, 101.33 kPa, x1 = 0.9032	1758.33
308.15 K, 101.33 kPa, x1 = 1	1900.86

BrCBr [dibromomethane] + CCOC(C)=O
Details	mass density [kg/m3]
288.15 K, 101.33 kPa, x1 = 0.0522	966.58
288.15 K, 101.33 kPa, x1 = 0.2014	1147.77
288.15 K, 101.33 kPa, x1 = 0.3006	1277.79
288.15 K, 101.33 kPa, x1 = 0.4028	1419.89
288.15 K, 101.33 kPa, x1 = 0.4852	1542.09
288.15 K, 101.33 kPa, x1 = 0.6012	1725.96
288.15 K, 101.33 kPa, x1 = 0.7001	1895.61
288.15 K, 101.33 kPa, x1 = 0.8077	2095.3
288.15 K, 101.33 kPa, x1 = 0.8997	2281.45
288.15 K, 101.33 kPa, x1 = 1	2501.88
298.15 K, 101.33 kPa, x1 = 0.0522	954.36
298.15 K, 101.33 kPa, x1 = 0.2014	1133.83
298.15 K, 101.33 kPa, x1 = 0.3006	1262.61
298.15 K, 101.33 kPa, x1 = 0.4028	1404.06
298.15 K, 101.33 kPa, x1 = 0.4852	1525
298.15 K, 101.33 kPa, x1 = 0.6012	1707.9
298.15 K, 101.33 kPa, x1 = 0.7001	1876.1
298.15 K, 101.33 kPa, x1 = 0.8077	2074.59
298.15 K, 101.33 kPa, x1 = 0.8997	2259.57
298.15 K, 101.33 kPa, x1 = 1	2478.37
298.15 K, 200 kPa, x1 = 0.2995	1260.2
298.15 K, 200 kPa, x1 = 0.5013	1549.45
298.15 K, 200 kPa, x1 = 0.6994	1874.05
298.15 K, 500 kPa, x1 = 0.2995	1260.63
298.15 K, 600 kPa, x1 = 0.5013	1550.03
298.15 K, 600 kPa, x1 = 0.6994	1874.73
298.15 K, 1100 kPa, x1 = 0.2995	1261.34
298.15 K, 1100 kPa, x1 = 0.5013	1550.84
298.15 K, 1200 kPa, x1 = 0.6994	1875.51
298.15 K, 1900 kPa, x1 = 0.5013	1551.83
298.15 K, 2100 kPa, x1 = 0.2995	1262.47
298.15 K, 2200 kPa, x1 = 0.6994	1876.85
298.15 K, 2900 kPa, x1 = 0.2995	1263.67
298.15 K, 2900 kPa, x1 = 0.5013	1553.29
298.15 K, 2900 kPa, x1 = 0.6994	1878.02
298.15 K, 3700 kPa, x1 = 0.2995	1264.58
298.15 K, 3900 kPa, x1 = 0.5013	1554.65
298.15 K, 4200 kPa, x1 = 0.6994	1879.75
298.15 K, 4700 kPa, x1 = 0.5013	1555.68
298.15 K, 4800 kPa, x1 = 0.2995	1265.79
298.15 K, 5200 kPa, x1 = 0.6994	1881.21
298.15 K, 5900 kPa, x1 = 0.2995	1267.24
298.15 K, 6000 kPa, x1 = 0.5013	1557.43
298.15 K, 6000 kPa, x1 = 0.6994	1882.25
298.15 K, 6700 kPa, x1 = 0.5013	1558.4
298.15 K, 6800 kPa, x1 = 0.2995	1268.29
298.15 K, 7000 kPa, x1 = 0.6994	1883.78
298.15 K, 7900 kPa, x1 = 0.5013	1560
298.15 K, 8000 kPa, x1 = 0.2995	1269.58
298.15 K, 8100 kPa, x1 = 0.6994	1885.33
298.15 K, 8600 kPa, x1 = 0.5013	1561.02
298.15 K, 8900 kPa, x1 = 0.2995	1270.84
298.15 K, 9100 kPa, x1 = 0.6994	1887
298.15 K, 9800 kPa, x1 = 0.2995	1271.89
298.15 K, 10000 kPa, x1 = 0.5013	1562.92
298.15 K, 10000 kPa, x1 = 0.6994	1888.23
298.15 K, 10400 kPa, x1 = 0.6994	1888.73
298.15 K, 12000 kPa, x1 = 0.5013	1565.67
298.15 K, 12100 kPa, x1 = 0.2995	1274.55
298.15 K, 12300 kPa, x1 = 0.6994	1891.62
298.15 K, 13800 kPa, x1 = 0.5013	1568.24
298.15 K, 14000 kPa, x1 = 0.2995	1276.89
298.15 K, 14000 kPa, x1 = 0.6994	1894.37
298.15 K, 15800 kPa, x1 = 0.2995	1278.96
298.15 K, 15800 kPa, x1 = 0.5013	1570.87
298.15 K, 15900 kPa, x1 = 0.6994	1897.08
298.15 K, 17600 kPa, x1 = 0.5013	1573.34
298.15 K, 17800 kPa, x1 = 0.6994	1900.02
298.15 K, 17900 kPa, x1 = 0.2995	1281.5
298.15 K, 19800 kPa, x1 = 0.5013	1576.4
298.15 K, 19800 kPa, x1 = 0.6994	1903.09
298.15 K, 20100 kPa, x1 = 0.2995	1284.19
308.15 K, 101.33 kPa, x1 = 0.0522	940.97
308.15 K, 101.33 kPa, x1 = 0.2014	1118.5
308.15 K, 101.33 kPa, x1 = 0.3006	1245.98
308.15 K, 101.33 kPa, x1 = 0.4028	1385.7
308.15 K, 101.33 kPa, x1 = 0.4852	1505.67
308.15 K, 101.33 kPa, x1 = 0.6012	1686.98
308.15 K, 101.33 kPa, x1 = 0.7001	1854.24
308.15 K, 101.33 kPa, x1 = 0.8077	2050.67
308.15 K, 101.33 kPa, x1 = 0.8997	2234.29
308.15 K, 101.33 kPa, x1 = 1	2451.74
